Test [1] addresses T1, NEP enzyme (Homo sapiens, UniProt P08473).
T1 construct: purchased R&D Systems, Minneapolis, Minn; 1182-ZN
Description: NEP enzyme inhibition assay (fluorogenic peptide substrate). The note with it: values given as lower bounds; * = prodrugs, may not exhibit NEP activity in an in vitro assay; read-out: NEP pIC50 (converted). Type of test: biochemical. The method, then:
B. In Vitro Assays for the Quantitation of Inhibitor Potencies (IC50) at Human and Rat NEP, and Human ACE
The inhibitory activities of compounds at human and rat NEP and human ACE were determined using in vitro assays as described below.
Recombinant human NEP and recombinant human ACE were obtained commercially (R&D Systems, Minneapolis, Minn., catalog numbers 1182-ZN and 929-ZN, respectively). The fluorogenic peptide substrate Mca-BK2 (Mca-Arg-Pro-Pro-Gly-Phe-Ser-Ala-Phe-Lys(Dnp)-OH; Johnson et al. (2000) Anal. Biochem. 286: 112-118) was used for the human NEP and ACE assays, and Mca-RRL (Mca-DArg-Arg-Leu-(Dnp)-OH; Medeiros et al. (1997) Braz. J. Med. Biol. Res. 30:1157-1162) was used for the rat NEP assay (both from Anaspec, San Jose, Calif.).
The assays were performed in 384-well white opaque plates at room temperature using the respective fluorogenic peptides at a concentration of 10 μM in assay buffer (50 mM Tris/HCl at 25° C., 100 mM NaCl, 0.01% Tween-20, 1 μM Zn, 0.025% BSA). […] The rat NEP enzyme preparation was used at a concentration that yielded quantitative proteolysis of 3 μM of Mca-RRL within 20 minutes at room temperature.
Test compounds were diluted to 12 concentrations from 10 μM to 20 pM in Assay Buffer. Assays were started by adding 25 μL of enzyme to 12.5 μL of test compound at each of the 12 concentrations. Test compounds were allowed to equilibrate with the enzyme for 10 minutes before 12.5 μL of the fluorogenic substrates were added to initiate the reaction. Reactions were terminated by the addition of 10 μL of 3.6% glacial acetic acid after 20 minutes of incubation.
For sulfhydryl-containing test compounds, the test compounds may be diluted in Assay Buffer containing a 400 μM concentration of tris(2-carboxyethyl)phosphine hydrochloride (Thermo Scientific, Rockford, Ill.) (TCEP). The test compounds are then incubated for 40 minutes at room temperature (to allow for dimer cleavage) before adding the enzyme. Test compounds are then allowed to equilibrate with the enzyme for 20 minutes before adding the fluorogenic substrates. Reactions are terminated as above.
Plates were read on a fluorometer with excitation and emission wavelengths set to 320 nm and 405 nm, respectively. Raw data (relative fluorescence units) were normalized to % activity from the average high readings (no inhibition, 100% enzyme activity) and average low readings (full inhibition, highest inhibitor concentration, 0% enzyme activity) using three standard NEP and ACE inhibitors, respectively. Nonlinear regression of the normalized data was performed using a one site competition model (GraphPad Software, Inc., San Diego, Calif.). Data were reported as pIC50 values.

The target of test [2] is T2, human AT1 receptor (Homo sapiens, UniProt P30556).
T2 construct: expressed in transfected cells; host or cells: CHO-K1
T2 sequence (P30556 1-359): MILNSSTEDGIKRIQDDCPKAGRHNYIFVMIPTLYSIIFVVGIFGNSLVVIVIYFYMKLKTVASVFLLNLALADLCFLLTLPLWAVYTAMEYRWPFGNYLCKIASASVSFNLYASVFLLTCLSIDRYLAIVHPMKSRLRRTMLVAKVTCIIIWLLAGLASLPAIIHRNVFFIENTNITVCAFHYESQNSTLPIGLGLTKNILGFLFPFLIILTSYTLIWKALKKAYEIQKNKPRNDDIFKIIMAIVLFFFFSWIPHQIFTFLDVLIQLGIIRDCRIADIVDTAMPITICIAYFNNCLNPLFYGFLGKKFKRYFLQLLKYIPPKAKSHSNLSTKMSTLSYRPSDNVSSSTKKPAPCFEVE
Nature of the test: AT1 radioligand binding assay (displacement of [Eu]AngII). The note with it: membranes of CHO-K1 cells expressing cloned human AT1 receptor; values given as lower bounds; read-out: AT1 pKi (converted). The method, then:
A. AT1 and AT2 Radioligand Binding Assays
These in vitro assays were used to assess the ability of test compounds to bind to the AT1 and the AT2 receptors.
Membrane Preparation from Cells Expressing Human AT1 or AT2 Receptors
Chinese hamster ovary (CHO-K1) derived cell lines stably expressing the cloned human AT1 or AT2 receptors, respectively, were grown in HAM's-F12 medium supplemented with 10% fetal bovine serum, 10 μg/ml penicillin/streptomycin, and 500 μg/ml geneticin in a 5% CO2 humidified incubator at 37° C. AT2 receptor expressing cells were grown in the additional presence of 100 nM PD123,319 (AT2 antagonist). When cultures reached 80-95% confluence, the cells were washed thoroughly in PBS and lifted with 5 mM EDTA. Cells were pelleted by centrifugation and snap frozen in MeOH-dry ice and stored at −80° C. until further use.
For membrane preparation, cell pellets were resuspended in lysis buffer (25 mM Tris/HCl pH 7.5 at 4° C., 1 mM EDTA, and one tablet of Complete Protease Inhibitor Cocktail Tablets with 2 mM EDTA per 50 mL buffer (Roche cat.#1697498, Roche Molecular Biochemicals, Indianapolis, Ind.)) and homogenized using a tight-fitting Dounce glass homogenizer (10 strokes) on ice. The homogenate was centrifuged at 1000×g, the supernatant was collected and centrifuged at 20,000×g. The final pellet was resuspended in membrane buffer (75 mM Tris/HCl pH 7.5, 12.5 mM MgCl2, 0.3 mM EDTA, 1 mM EGTA, 250 mM sucrose at 4° C.) and homogenized by extrusion through a 20G gauge needle. Protein concentration of the membrane suspension was determined by the method described in Bradford (1976) Anal Biochem. 72:248-54. Membranes were snap frozen in MeOH-dry ice and stored at −80° C. until further use.
Ligand Binding Assay to Determine Compound Affinities for the Human AT1 and AT2 Angiotensin Receptors
Binding assays were performed in 96-well Acrowell filter plates (Pall Inc., cat.#5020) in a total assay volume of 100 μL with 0.2 μg membrane protein for membranes containing the human AT1 receptor, or 2 μg membrane protein for membranes containing the human AT2 receptor in assay buffer (50 mM Tris/HCl pH 7.5 at 20° C., 5 mM MgCl2, 25 μM EDTA, 0.025% BSA). Saturation binding studies for determination of Kd values of the ligand were done using N-terminally Europium-labeled angiotensin-II ([Eu]AngII, H-(Eu-N^1)-Ahx-Asp-Arg-Val-Tyr-Ile-His-Pro-Phe-OH; PerkinElmer, Boston, Mass.) at 8 different concentrations ranging from 0.1 nM to 30 nM. […] Drugs were dissolved to a concentration of 1 mM in DMSO and from there serially diluted into assay buffer. Non-specific binding was determined in the presence of 10 μM unlabeled angiotensin-II. Assays were incubated for 120 minutes in the dark, at room temperature or 37° C., and binding reactions were terminated by rapid filtration through the Acrowell filter plates followed by three washes with 200 μL ice cold wash buffer (50 mM Tris/HCl pH 7.5 at 4° C., 5 mM MgCl2) using a Waters filtration manifold. Plates were tapped dry and incubated with 50 μl DELFIA Enhancement Solution (PerkinElmer cat.#4001-0010) at room temperature for 5 minutes on a shaker. Filter-bound [Eu]AngII was quantitated immediately on a Fusion plate reader (PerkinElmer) using Time Resolved Fluorescence (TRF). Binding data were analyzed by nonlinear regression analysis with the GraphPad Prism Software package (GraphPad Software, Inc., San Diego, Calif.) using the 3-parameter model for one-site competition. The BOTTOM (curve minimum) was fixed to the value for nonspecific binding, as determined in the presence of 10 μM angiotensin II. Ki values for drugs were calculated from observed IC50 values and the Kd value of [Eu]AngII according to the Cheng-Prusoff equation described in Cheng et al. (1973) Biochem Pharmacol. 22 (23):3099-108. Selectivities of test compounds for the AT1 receptor over the AT2 receptor were calculated as the ratio of AT2Ki/AT1Ki. […]

Where only a bound is given, the exact number is not on record here.

T1 sequence (P08473 52-750 limits assumed): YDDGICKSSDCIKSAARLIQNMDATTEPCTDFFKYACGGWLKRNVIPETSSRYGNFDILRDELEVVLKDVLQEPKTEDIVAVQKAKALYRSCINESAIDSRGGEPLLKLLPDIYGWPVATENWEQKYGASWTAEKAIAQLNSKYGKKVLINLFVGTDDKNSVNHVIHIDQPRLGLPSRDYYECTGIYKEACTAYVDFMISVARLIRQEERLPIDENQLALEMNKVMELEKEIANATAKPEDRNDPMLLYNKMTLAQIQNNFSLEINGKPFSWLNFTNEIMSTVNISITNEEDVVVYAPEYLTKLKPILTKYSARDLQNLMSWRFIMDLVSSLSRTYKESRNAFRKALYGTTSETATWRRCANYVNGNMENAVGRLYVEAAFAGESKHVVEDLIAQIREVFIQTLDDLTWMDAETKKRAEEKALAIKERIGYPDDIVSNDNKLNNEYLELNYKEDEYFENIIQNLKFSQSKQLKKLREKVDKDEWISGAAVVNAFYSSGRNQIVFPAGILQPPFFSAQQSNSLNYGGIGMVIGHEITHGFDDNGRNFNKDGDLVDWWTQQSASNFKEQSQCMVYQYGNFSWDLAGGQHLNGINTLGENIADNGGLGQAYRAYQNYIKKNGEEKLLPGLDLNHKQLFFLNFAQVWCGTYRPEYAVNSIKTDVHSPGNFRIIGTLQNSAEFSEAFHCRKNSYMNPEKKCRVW

For `CCOc1cc(C(=O)N[C@H](Cc2ccccc2)[C@@H](O)C(=O)O)nn1Cc1ccc(-c2ccccc2S(=O)(=O)NC(C)=O)cc1F` [Example 6-4, (2R,3R)-3-{[1-(2′-Acetylsulfamoyl-3-fluorobiphenyl-4-ylmethyl)-5-ethoxy-1H-pyrazole-3-carbonyl]amino}-2-hydroxy-4-phenylbutyric acid], the IC50 in test [1] is ≤ 100 nM. In addition, the Ki in test [2] is ≤ 10 nM.
For `CCCc1cc(C(=O)N[C@@H](CC(=O)OC)Cc2ccccc2Cl)nn1Cc1ccc(-c2ccccc2-c2nnn[nH]2)cc1` [Example 3-28, (R)-4-(2-Chlorophenyl)-3-({5-propyl-1-[2′-(1H-tetrazol-5-yl)biphenyl-4-ylmethyl]-1H-pyrazole-3-carbonyl}amino)butyric acid methyl ester], the IC50 in test [1] was ≤ 10000 nM. Also, the Ki in test [2] is ≤ 10 nM.
Regarding `CCCc1cc(C(=O)N[C@@H](CC(=O)NO)Cc2ccccc2)nn1Cc1ccc(-c2ccccc2S(=O)(=O)NC(C)=O)cc1F` [Example 6-16, 1-(2′-Acetylsulfamoyl-3-fluorobiphenyl-4-ylmethyl)-5-propyl-1H-pyrazole-3-carboxylic acid ((R)-1-hydroxycarbamoylmethyl-2-phenylethyl)amide], the IC50 in test [1] is ≤ 100 nM. Besides, in test [2], the Ki is ≤ 10 nM.
Consider `CCCc1cc(C(=O)N[C@H](Cc2ccccc2)[C@@H](O)C(=O)O)nn1Cc1ccc(-c2ccccc2S(=O)(=O)NC(C)=O)cc1` [Example 4, (2R,3R)-3-(1-((2′-(N-Acetylsulfamoyl)biphenyl-4-yl)methyl)-5-propyl-1H-pyrazole-3-carboxamido)-2-hydroxy-4-phenylbutanoic Acid], for which, in test [1], the IC50 is ≤ 100 nM. The Ki in test [2] is ≤ 10 nM.
As for `CCCc1cc(C(=O)N[C@@H](CC(=O)O)Cc2ccccc2)nn1Cc1ccc(-c2ccccc2-c2nnn[nH]2)nc1` [Example 14-6, (R)-4-Phenyl-3-[(5-propyl-1-{6-[2-(1H-tetrazol-5-yl)-phenyl]-pyridin-3-ylmethyl}-1H-pyrazole-3-carbonyl)amino]butyric acid], in test [1], the IC50 was ≤ 100 nM. Besides, the Ki in test [2] was ≤ 10 nM.
Take `CCCc1cc(C(=O)N[C@@H](CC(=O)O)Cc2ccccc2F)nn1Cc1ccc(-c2ccccc2-c2nnn[nH]2)nc1` [Example 12, (R)-4-(2-Fluorophenyl)-3-[(5-propyl-1-{6-[2-(1H-tetrazol-5-yl)phenyl]pyridin-3-ylmethyl}-1H-pyrazole-3-carbonyl)amino]butyric acid]: the IC50 in test [1] is ≤ 100 nM. Also, the Ki in test [2] is ≤ 10 nM.
Taken in the same sequence, the figures for `CCCc1cc(C(=O)N[C@H](Cc2ccccc2)CN(O)C=O)nn1Cc1ccc(-c2ccccc2S(=O)(=O)NC(C)=O)cc1` [Example 6-13, 1-(2′-Acetylsulfamoyl-biphenyl-4-ylmethyl)-5-propyl-1H-pyrazole-3-carboxylic acid [(R)-1-benzyl-2-(formyl-hydroxy-amino)-ethyl]amide] were ≤ 100 nM and ≤ 10 nM.
Regarding `CCCc1cc(C(=O)N[C@@H](CC(C)C)CN(O)C=O)nn1Cc1ccc(-c2ccccc2S(=O)(=O)NC(C)=O)cc1` [Example 6-23, 1-(2′-Acetylsulfamoyl-biphenyl-4-ylmethyl)-5-propyl-1H-pyrazole-3-carboxylic acid {(S)-1-[(formylhydroxyamino)methyl]-3-methylbutyl}amide], in test [1], the IC50 was ≤ 100 nM. Moreover, the Ki in test [2] is ≤ 10 nM.
Consider `CCCc1cc(C(=O)N[C@@H](CS)Cc2ccccc2)nn1Cc1ccc(-c2ccccc2C(=O)O)cc1` [Example 9-6, 4′-[3-((R)-1-Mercaptomethyl-2-phenylethylcarbamoyl)-5-propylpyrazol-1-ylmethyl]biphenyl-2-carboxylic acid], for which, in test [1], the IC50 was ≤ 100 nM. For the same molecule, in test [2], the Ki was ≤ 100 nM.
Take `CCCc1cc(C(=O)N[C@H](Cc2ccccc2)[C@@H](O)C(=O)O)nn1Cc1ccc(-c2ccccc2S(=O)(=O)NC(=O)OC)cc1` [Example 5, (2R,3R)-2-hydroxy-3-(1-((2′-(N-(methoxycarbonyl)-sulfamoyl)biphenyl-4-yl)methyl)-5-propyl-1H-pyrazole-3-carboxamido)-4-phenylbutanoic Acid]: the IC50 in test [1] is ≤ 100 nM. Moreover, in test [2], the Ki was ≤ 10 nM.
In the case of `CCCc1cc(C(=O)N[C@H](Cc2ccccc2)[C@@H](O)C(=O)O)nn1Cc1ccc(-c2ccccc2S(=O)(=O)NC(=O)[C@@H](C)O)cc1` [Example 7-16, (2R,3R)-2-Hydroxy-3-({1-[2′-((R)-2-hydroxypropionylsulfamoyl)biphenyl-4-ylmethyl]-5-propyl-1H-pyrazole-3-carbonyl}amino)-4-phenylbutyric acid], the IC50 in test [1] is ≤ 100 nM. Moreover, the Ki in test [2] was ≤ 10 nM.

Source of the values: patent US8350027B2, “Dual-acting pyrazole antihypertensive agents” (Theravance, Inc., priority 2009, dated 2013).
